We go through 69 molecules from ChEMBL document CHEMBL1140615, “Predicting anti-HIV activity of PETT derivatives: CoMFA approach” (2007).

Where “and” joins values, the source holds several entries; their conditions need not be identical. Equal values may be shown once.

This experiment deals with Human immunodeficiency virus 1. The experiment in a line: Antiviral activity against HIV1 in MT4 cells assessed as reduction of virus-induced cytopathicity by XTT assay. It counts as functional.
In the case of `S=C(NCCc1ccccc1)Nc1ncc(Cl)s1`, the Log10ED50 is on record as 0.4314.

For `S=C(NCCc1ccccc1Cl)Nc1nccs1`, the pED50 stood at 0.3979.

With `S=C(NCCc1ccccc1)Nc1nncs1`, the Log10ED50 is reported as 0.7243.

Regarding `S=C(NCCc1ccccn1)Nc1nccs1`, the Log10ED50 came out at 0.1139.

Regarding `S=C(NCCc1cccc(Oc2ccccc2)c1)Nc1nccs1`, the Log10ED50 is reported as 0.4471.

For `N#Cc1csc(NC(=S)NCCc2ccccc2)n1`, the pED50 is on record as 0.6989.

As for `COc1cccc(F)c1CCNC(=S)Nc1nccs1`, the pED50 is recorded as 0.5229.

For `COc1ccc(Br)cc1CCNC(=S)Nc1nccs1`, the pED50 came to 1.301.

For the molecule `Fc1cccc(F)c1CCNC(=S)Nc1nccs1`, the pED50 came out at 1.6989.

Regarding `Fc1cccc(Cl)c1CCNC(=S)Nc1nccs1`, the pED50 is recorded as 1.301.

Consider `Cn1cccc1CNC(=S)Nc1ccc(Cl)cn1`, for which the pED50 was 0.602.

Turning to `CN(C)c1ccc(F)c(CCNC(=S)Nc2ccc(Cl)cn2)c1F`, the pED50 worked out at 1.3979.

For `CCOc1ccc(F)c(CCNC(=S)Nc2ccc(Br)cn2)c1F`, the pED50 is reported as 2.2218.

In the case of `COCc1ccc(F)c(CCNC(=S)Nc2ccc(Br)cn2)c1F`, the pED50 is listed as 2.2218.

In the case of `CCOc1ccc(F)c(CCNC(=S)Nc2ccc(Cl)cn2)c1Cl`, the pED50 amounted to 2.0969.

Regarding `CCOc1ccc(F)c(CCNC(=S)Nc2ccc(I)cn2)c1Cl`, the pED50 was determined as 1.8239.

`COc1ccc(OC)c(CCNC(=S)Nc2ccc(Cl)cn2)c1F`: the pED50 is 2.6989.

Consider `COc1ccc(F)c(CCNC(=S)Nc2ccc(Cl)cn2)c1OC`, for which the pED50 is 1.9208.

As for `CCOc1cccc(F)c1CCNC(=S)Nc1ccc(Br)cn1`, the pED50 is 1.886 and 1.6989.

With `CN(C)C(=O)c1ccc(F)c(CCNC(=S)Nc2ccc(Br)cn2)c1F`, the pED50 was 1.0969.

With `COc1ccc(OC)c(CCNC(=S)Nc2ccc(Cl)cn2)c1`, the pED50 came out at 1.3979.

Regarding `N#Cc1ccc(F)c(CCNC(=S)Nc2ccc(Br)cn2)c1F`, the pED50 was found to be 1.886.

For `Fc1ccccc1CCNC(=S)Nc1nccs1`, the pED50 is listed as 1.

With `Fc1cccc(CCNC(=S)Nc2nccs2)c1`, the pED50 is given as 0.6021.

As to `Fc1ccc(CCNC(=S)Nc2nccs2)cc1`, the Log10ED50 came to 0.5185.

In the case of `N#Cc1csc(NC(=S)NCCc2c(F)cccc2F)n1`, the pED50 is reported as 1.5229.

Regarding `Cn1cccc1CNC(=S)Nc1ccc(C#N)cn1`, the pED50 is on record as 0.959.

As to `COc1ccccc1CCNC(=S)Nc1nccs1`, the pED50 is on record as 0.3979.

Turning to `COc1ccc(CCNC(=S)Nc2nccs2)cc1`, the Log10ED50 worked out at 0.7404.

On to `Cc1ccccc1CCNC(=S)Nc1nccs1`, for which the pED50 is given as 0.0227.

In the case of `CCOc1ccc(OCC)c(CCNC(=S)Nc2ccc(Br)cn2)c1`, the pED50 was 1.7447.

In the case of `O=[N+]([O-])c1ccccc1CCNC(=S)Nc1nccs1`, the Log10ED50 amounted to 0.0414.

Take `CCOc1cccc(CCNC(=S)Nc2nccs2)c1`: the pED50 is recorded as 0.8239.

Regarding `CCCOc1cccc(CCNC(=S)Nc2nccs2)c1`, the Log10ED50 is on record as 0.3424.

As to `CC(C)Oc1cccc(CCNC(=S)Nc2nccs2)c1`, the pED50 was determined as 0.3979.

As to `Cc1csc(NC(=S)NCCc2ccccc2)n1`, the pED50 was 0.3979.

For the molecule `CCc1csc(NC(=S)NCCc2ccccc2)n1`, the pED50 is reported as 0.1549.

For `CC(C)c1csc(NC(=S)NCCc2ccccc2)n1`, the Log10ED50 is 0.1139.

With `CCCCc1csc(NC(=S)NCCc2ccccc2)n1`, the Log10ED50 amounted to 0.1139.

As for `S=C(NCCc1ccccc1)Nc1ccccn1`, the pED50 stood at 0.6989.

`S=C(NCCc1ccccc1)Nc1ccc(Br)cn1`: the pED50 was found to be 1.301.

As to `N#Cc1ccc(F)c(CC/N=C(\S)Nc2ccc(Cl)cn2)c1F`, the pED50 is listed as 2.2218.

Take `COc1ccc(F)c(F)c1CC/N=C(\S)Nc1ccc(Br)cn1`: the pED50 is 2.1589.

With `S=C(NCCc1ccccc1)Nc1nccs1`, the Log10ED50 was found to be 0.1139.

`S=C(NCCc1cccnc1)Nc1nccs1`: the Log10ED50 was determined as 0.8062.

Consider `S=C(NCCc1ccco1)Nc1nccs1`, for which the Log10ED50 was determined as 0.716.

Turning to `CCOC(=O)c1csc(NC(=S)NCCc2ccccc2)n1`, the pED50 came out at 0.301.

Take `Cc1ccc(NC(=S)NCCc2ccccc2)nc1`: the pED50 amounted to 0.8239.

For the molecule `Cc1ccc(NC(=S)NCCc2c(F)cccc2F)nc1`, the pED50 worked out at 2.

On to `CCOc1c(Cl)cc(F)c(CCNC(=S)Nc2ccc(Br)cn2)c1Cl`, for which the pED50 amounted to 1.886.

`COc1ccc(F)c(CCNC(=S)Nc2ccc(Br)cn2)c1F`: the pED50 worked out at 1.8239.

Regarding `CCCc1csc(NC(=S)NCCc2ccccc2)n1`, the Log10ED50 was found to be 0.2041.

As for `CCOc1ccc(OC)c(CCNC(=S)Nc2ccc(Cl)cn2)c1F`, the pED50 is given as 2.301.

For `CCOc1cccc(F)c1CCNC(=S)Nc1ccc(C)cn1`, the pED50 is on record as 0.6989.

`Cc1ccc(NC(=S)NCCc2ccccn2)nc1`: the pED50 is listed as 0.5228.

`CCc1csc(NC(=S)NCCc2c(F)cccc2F)n1`: the pED50 amounted to 1.0969.

With `Oc1ccccc1CCNC(=S)Nc1nccs1`, the Log10ED50 is reported as 0.602.

Consider `COc1cccc(OC)c1CCNC(=S)Nc1nccs1`, for which the pED50 was determined as 1.0457.

Regarding `CC(=O)NCc1ccc(F)c(CCNC(=S)Nc2ccc(Br)cn2)c1F`, the pED50 is 0.0457.

On to `COc1cccc(CCNC(=S)Nc2nccs2)c1`, for which the pED50 came out at 0.2218.

For the molecule `COc1ccc(OC)c(CCNC(=S)Nc2nccs2)c1`, the pED50 was determined as 0.3979.

As for `CCOc1ccc(F)c(F)c1CCNC(=S)Nc1ccc(Br)cn1`, the pED50 is reported as 2.1549.

On to `FC(F)(F)c1csc(NC(=S)NCCc2ccccc2)n1`, for which the pED50 is given as 0.301.

For the molecule `CCOc1ccc(F)c(CCNC(=S)Nc2ccc(C#N)cn2)c1Cl`, the pED50 was 2.5229.

Take `CCOc1cccc(F)c1CCNC(=S)Nc1nccs1`: the pED50 came to 0.6989.

On to `CN(C)c1ccc(F)c(CCNC(=S)Nc2ccc(Br)cn2)c1F`, for which the pED50 is 1.7447 and 1.3979.

Turning to `Fc1cccc(F)c1CC/N=C(\S)Nc1ccc(Br)cn1`, the pED50 is 2.

As to `CCOc1ccc(F)c(CCNC(=S)Nc2ccc(Br)cn2)c1Cl` [THIOUREA, N-(5-BROMO-2-PYRIDINYL)-N'-(2-(2-CHLORO-3-ETHOXY-6-FLUOROPHENYL)ETHYL)-], the pED50 was found to be 2.1549.

Consider `S=C(NCCc1ccccn1)Nc1ccc(Br)cn1` [TROVIRDINE], for which the pED50 turned out to be 1.6989.
